Bounds are passed on as bounds.

The target of this experiment is ADAMTS4 (Homo sapiens (Human), UniProt O75173). Description: Selectivity assay for ADAMTS-7 modulators: ADAMTS4 (FRET substrate). Format: biochemical. The conditions noted are these: ADAMTS4 (R&D 4307-AD) 50 nM, substrate Dabcyl-EEVKAKVQPY-Glu(Edans)-NH2 1 μM, 120 min, 32° C. The method, boiled down: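 Human ADAMTS4 with compound in DMSO, or DMSO control; reaction started by adding FRET substrate in reaction buffer. Fluorescence increase measured at substrate-specific wavelengths. IC50 derived from % inhibition of enzyme activity versus compound concentration.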
Chain of ADAMTS4 (O75173 213-685): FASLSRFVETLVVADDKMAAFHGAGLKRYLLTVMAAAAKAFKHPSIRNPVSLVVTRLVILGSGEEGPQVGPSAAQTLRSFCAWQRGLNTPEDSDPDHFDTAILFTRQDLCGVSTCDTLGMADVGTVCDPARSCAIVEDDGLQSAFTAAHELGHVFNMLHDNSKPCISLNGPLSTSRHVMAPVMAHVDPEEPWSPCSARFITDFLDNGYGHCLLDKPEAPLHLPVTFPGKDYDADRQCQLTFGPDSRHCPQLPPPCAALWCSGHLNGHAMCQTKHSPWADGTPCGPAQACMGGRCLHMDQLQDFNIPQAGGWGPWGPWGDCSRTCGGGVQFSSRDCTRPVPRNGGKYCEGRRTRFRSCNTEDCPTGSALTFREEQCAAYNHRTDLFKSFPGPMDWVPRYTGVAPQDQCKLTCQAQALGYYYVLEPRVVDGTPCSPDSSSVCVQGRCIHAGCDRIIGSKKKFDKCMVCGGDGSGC
In turn, `Cn1nccc1C1(CNC(=O)c2ccccc2-c2ccc(S(C)(=O)=O)cc2)NC(=O)NC1=O` (stereo not drawn) [Example 194, Ent-N-{[4-(1-Methyl-1H-Pyrazol-5-Yl)-2,5-Dioxoimidazolidin-4-Yl]Methyl}-4′-(Methylsulfonyl)[Biphenyl]-2-Carboxamide] showed an IC50 of 8.9 µM.
The figure for `O=C1NC(=O)C(CNC(=O)c2ccccc2-c2ccc(C(F)(F)F)cc2)(c2ccnn2C2CC2)N1` (stereo not drawn) [Example 46, Ent-N-{[4-(1-Cyclopropyl-1H-Pyrazol-5-Yl)-2,5-Dioxoimidazolidin-4-Yl]Methyl}-4′-(Trifluoromethyl)[Biphenyl]-2-Carboxamide] is 4.8 µM.
As for `Cn1cncc1C1(CNC(=O)c2ccccc2-c2ccc(C(F)(F)F)nc2)NC(=O)NC1=O` (racemic) [Example 285, Rac-N-{[4-(1-Methyl-1H-Imidazol-5-Yl)-2,5-Dioxoimidazolidin-4-Yl]Methyl}-2-[6-(Trifluoromethyl)Pyridin-3-Yl]Benzamide], the half-maximal inhibitory concentration (IC50) was 6.6 µM.
To `O=C1NC(=O)[C@](CNC(=O)c2ccccc2-c2ccc(CC(F)(F)F)cc2)(C2CC2)N1` [Example 119, N-{[(4R)-4-Cyclopropyl-2,5-Dioxoimidazolidin-4-Yl]Methyl}-4′-(2,2,2-Trifluoroethyl)[Biphenyl]-2-Carboxamide] belongs 9.1 µM; to `Cc1nn(C)cc1C1(CNC(=O)c2ccccc2-c2ccc(C(F)(F)F)cc2)NC(=O)NC1=O` (stereo not drawn) [Example 87, Ent-N-{[4-(1,3-Dimethyl-1H-Pyrazol-4-Yl)-2,5-Dioxoimidazolidin-4-Yl]Methyl}-4′-(Trifluoromethyl)[Biphenyl]-2-Carboxamide], 6.9 µM; to `O=C1NC(=O)[C@](CNC(=O)c2ccc(Cl)cc2-c2ccc(C(F)(F)F)cc2)(C2CC2)N1` [Example 216, 5-Chloro-N-{[(4R)-4-Cyclopropyl-2,5-Dioxoimidazolidin-4-Yl]Methyl}-4′-(Trifluoromethyl)[1,1′-Biphenyl]-2-Carboxamide], 9.1 µM.
As to `O=C1NC(=O)C(CNC(=O)c2ccccc2-c2ccc(C(F)(F)F)cc2)(c2cccnn2)N1` (racemic) [Example 42, Rac-N-{[2,5-Dioxo-4-(Pyridazin-3-Yl)Imidazolidin-4-Yl]Methyl}-4′-(Trifluoromethyl)[Biphenyl]-2-Carboxamide], the IC50 was above 50 µM.
In the case of `O=C1NC(=O)[C@](CNC(=O)c2cc(F)c(F)cc2-c2ccc(C3CC3(F)F)cc2)(C2CC2)N1` (stereo partly drawn) [Example 144, N-{[(4R)-4-Cyclopropyl-2,5-Dioxoimidazolidin-4-Yl]Methyl}-4′-(2,2-Difluorocyclopropyl)-4,5-Difluoro[1,1′-Biphenyl]-2-Carboxamide], the IC50 was 25 µM.
Regarding `N#Cc1ccc(-c2ccccc2C(=O)NC[C@@]2(C3CC3)NC(=O)NC2=O)cc1` [Example 223, 4′-Cyano-N-{[(4R)-4-Cyclopropyl-2,5-Dioxoimidazolidin-4-Yl]Methyl}[1,1′-Biphenyl]-2-Carboxamide], the IC50 was found to be 26 µM.
Compound `Cc1cc(C2(CNC(=O)c3ccccc3-c3ccc(C(F)(F)F)cc3)NC(=O)NC2=O)n(C)n1` (racemic) [Example 275, Rac-N-{[4-(1,3-Dimethyl-1H-Pyrazol-5-Yl)-2,5-Dioxoimidazolidin-4-Yl]Methyl}-4′-(Trifluoromethyl)[Biphenyl]-2-Carboxamide] showed an IC50 of 9.1 µM.
To `O=C1NC(=O)[C@](CNC(=O)c2ccccc2-c2ccc(C3(C(F)(F)F)CC3)cc2)(C2CC2)N1` [Example 115, N-{[(4R)-4-Cyclopropyl-2,5-Dioxoimidazolidin-4-Yl]Methyl}-4′-[1-(Trifluoromethyl)Cyclopropyl][Biphenyl]-2-Carboxamide] belongs 7.8 µM.
To `O=C1NC(=O)C(CNC(=O)c2ccc(F)c(F)c2-c2ccc(C(F)(F)F)cc2)(C23CC(F)(C2)C3)N1` (racemic) [Example 295, Rac-5,6-Difluoro-N-{[4-(3-Fluorobicyclo[1.1.1]Pentan-1-Yl)-2,5-Dioxoimidazolidin-4-Yl]Methyl}-4′-(Trifluoromethyl)[Biphenyl]-2-Carboxamide] belongs above 50 µM; to `CCC(C)C1(CNC(=O)c2ccccc2-c2ccc(C(F)(F)F)nc2)NC(=O)NC1=O` (stereo not shown) [Example 51, Diamix-N-[(4-Sec-Butyl-2,5-Dioxoimidazolidin-4-Yl)Methyl]-2-[6-(Trifluoromethyl)Pyridin-3-Yl]Benzamide], 25 µM.
The figure for `Cc1ccc(C(=O)NC[C@@]2(C3CC3)NC(=O)NC2=O)c(-c2ccc(C3CC3(F)F)cc2)c1` (single isomer, unassigned) [Example 137] is 13 µM; for `Cc1scnc1C1(CNC(=O)c2ccccc2-c2ccc(C(F)(F)F)nc2)NC(=O)NC1=O` (stereo not drawn) [Example 173, Ent-N-{[4-(5-Methyl-1,3-Thiazol-4-Yl)-2,5-Dioxoimidazolidin-4-Yl]Methyl}-2-[6-(Trifluoromethyl)Pyridin-3-Yl]Benzamide] it is 7.9 µM; for `Cn1ccnc1C1(CNC(=O)c2cc(Cl)ccc2-c2ccc(C(F)(F)F)cc2)NC(=O)NC1=O` (single isomer, unassigned; ent-4) [Example 156, Ent-4-Chloro-N-{[4-(1-Methyl-1H-Imidazol-2-Yl)-2,5-Dioxoimidazolidin-4-Yl]Methyl}-4′-(Trifluoromethyl)[Biphenyl]-2-Carboxamide] it is 25 µM.
In the case of `Cn1ccnc1C1(CNC(=O)c2cc(F)ccc2-c2ccc(C3CC3(F)F)cc2)NC(=O)NC1=O` (stereo not shown) [Example 139, 4′-(2,2-Difluorocyclopropyl)-4-Fluoro-N-{[4-(1-Methyl-1H-Imidazol-2-Yl)-2,5-Dioxoimidazolidin-4-Yl]Methyl}[1,1′-Biphenyl]-2-Carboxamide], the IC50 stood at 2.1 µM.
The figure for `Cc1scnc1C1(CNC(=O)c2ccccc2-c2ccc(C(F)(F)F)cc2)NC(=O)NC1=O` (racemic) [Example 1, Rac-N-{[4-(5-Methyl-1,3-Thiazol-4-Yl)-2,5-Dioxoimidazolidin-4-Yl]Methyl}-4′-(Trifluoromethyl)[Biphenyl]-2-Carboxamide] is 6.5 µM; for `Cc1ncsc1C1(CNC(=O)c2ccc(F)cc2-c2ccc(C(F)(F)F)cc2)NC(=O)NC1=O` (single isomer, unassigned; ent-5) [Example 10, Ent-5-Fluoro-N-{[4-(4-Methyl-1,3-Thiazol-5-Yl)-2,5-Dioxoimidazolidin-4-Yl]Methyl}-4′-(Trifluoromethyl)[Biphenyl]-2-Carboxamide] it is 8.9 µM; for `Cc1ccc(-c2c(C)cccc2C(=O)NC[C@@]2(C3CC3)NC(=O)NC2=O)cc1` [Example 101, N-{[(4R)-4-Cyclopropyl-2,5-Dioxoimidazolidin-4-Yl]Methyl}-4′,6-Dimethyl[Biphenyl]-2-Carboxamide] it is 3.2 µM.
`Cc1cc(C2(CNC(=O)c3ccccc3-c3ccc(C(F)(F)F)cc3)NC(=O)NC2=O)n(C)n1` (stereo not drawn) [Example 302, Ent-N-{[4-(1,3-Dimethyl-1H-Pyrazol-5-Yl)-2,5-Dioxoimidazolidin-4-Yl]Methyl}-4′-(Trifluoromethyl)[Biphenyl]-2-Carboxamide]: the IC50 turned out to be 7.6 µM.
To `Cc1nscc1C1(CNC(=O)c2ccc(F)c(F)c2-c2ccc(C(F)(F)F)cc2)NC(=O)NC1=O` (racemic) [Example 306, Rac-5,6-Difluoro-N-{[4-(3-Methyl-1,2-Thiazol-4-Yl)-2,5-Dioxoimidazolidin-4-Yl]Methyl}-4′-(Trifluoromethyl)[Biphenyl]-2-Carboxamide] belongs 16 µM.

For orientation: IC50 means the concentration that gives 50% inhibition.

Source of the values: patent publication US12398120B2, “Substituted hydantoinamides as ADAMTS7 antagonists” (BAYER AKTIENGESELLSCHAFT, priority 2019, dated 2025).
